Like-named read-outs stand apart in the source and are kept apart here.
Columns and labels:
Test in all cases: Cell growth inhibition assay
BT-474-J4 = format: cell-based, human; settings: BT-474-J4, breast, HER2+, PIK3CA K111N, single agent, read-out: IC50 Single Agent (mean +/- std)
Description: (§1) Human breast tumor lines. BT-474, HCC1419, HCC1937, HCC1954, HCC202, KPL-1, MDA-MB-157, MDA-MB-175-VII, MDA-MB-361, MDA-MB-453, SK-BR-3, SUM225PE, UACC893, and ZR-75-1; lung tumor line, CALU-3; and melanoma line, CHL-1, were from ATCC. Human breast tumor line JIMT-1 was from European Collection of Cell Cultures (UK). Human breast tumor lines SUM149PT, SUM190PT and SUM52PE were from Asterand. These lines were cultured in RPMI 1640 medium containing 10% fetal bovine serum (FBS). A head and neck tumor line, LICR LON HN5 (HN5), a gift from the Institute of Cancer Research, Surrey, U.K, was cultured in Dulbecco's modified Eagle medium (DMEM) containing 5% FBS; KPL-4 breast tumor cell line was kindly provided by Dr Junichi Kurebayashi (Kawasaki Medical School, Okayama, Japan) and cultured in DMEM containing 5% FBS. JIMT-1 is a line derived from a patient clinically resistant to trastuzumab (Herceptin®). BT-474-J4 is a single cell clone derived from a pool of BT-474 cells that were selected to grow in lapatinib to a concentration of 3 μM.
(§2) All cells were cultured for a minimum of 72 hours prior to cell plating. Cells were assayed in a 96-well tissue culture plate (NUNC 136102) of RPMI medium containing 10% FBS for all cells at 2,000 cells per well except KPL-4 and HN5 which were plated in DMEM containing 5% FBS at 500 cells per well. Approximately 24 hours after plating, cells were exposed to ten, two-fold or three-fold serial dilutions of compound or the combination of the two agents at a constant molar to molar ratio of 1:1 Compound A to Compound B in RPMI media containing 10% FBS or DMEM containing 5% FBS. Cells were incubated in the presence of compounds for 3 days. ATP levels were determined by adding Cell Titer Glo® (Promega) according to the manufacturer's protocol. Briefly, Cell Titer Glo® was added each plate, incubated for 20 minutes then luminescent signal was read on the SpectraMax L plate reader with a 0.5 sec integration time.
(§3) Inhibition of cell growth was estimated after treatment with compound or combination of compounds for three days and comparing the signal to cells treated with vehicle (DMSO). Cell growth was calculated relative to vehicle (DMSO) treated control wells. Concentration of compound that inhibits 50% of control cell growth (IC50) was interpolated using nonlinear regression with the equation, y=(A+(B−A)/(1+(C/x)̂D))), where A is the minimum response (ymin), B is the maximum response (ymax), C is the inflection point of the curve (EC50) and D is the Hill coefficient. […]

JIMT-1 = format: cell-based, human; settings: for IC50: Homo sapiens, JimT-1, breast, HER2+, PIK3CA C420R, single agent, read-out: IC50 Single Agent (mean +/- std); for sensitivity as single agents: JIMT-1
Description: as §1, §2, §3

SUM225PE = format: cell-based, human; settings: breast, HER2+, WT, single agent, read-out: IC50 Single Agent (mean +/- std)
Description: as §1, §2, §3

HCC1954 = format: cell-based; settings: Homo sapiens, HCC1954, HCC1954, breast, HER2+, PIK3CA H1047R; single agent; read-out: IC50 Single Agent (mean +/- std)
Description: as §1, §2, §3

UACC893 = format: cell-based; settings: Homo sapiens, UACC-893, UACC893, breast, HER2+, PIK3CA H1047R; single agent; read-out: IC50 Single Agent (mean +/- std)
Description: as §1, §2, §3

MDA-MB-453 = format: cell-based; settings: Homo sapiens, MDA-MB-453, MDA-MB-453, breast, HER2+, PIK3CA H1047R; single agent; read-out: IC50 Single Agent (mean +/- std)
Description: as §1, §2, §3

MDA-MB-361 = format: cell-based; settings: Homo sapiens, MDA-MB-361, MDA-MB-361, breast, HER2+, PIK3CA E545K; single agent; read-out: IC50 Single Agent (mean +/- std)
Description: as §1, §2, §3

KPL-4 = format: cell-based; settings: Homo sapiens, KPL4, KPL-4, breast, HER2+, PIK3CA H1047R; single agent; read-out: IC50 Single Agent (mean +/- std)
Description: as §1, §2, §3

ZR-75-1 = format: cell-based; settings: Homo sapiens, ZR-75-1, ZR-75-1, breast, PTEN L108R; single agent; read-out: IC50 Single Agent (mean +/- std)
Description: as §1, §2, §3

SUM52PE = format: cell-based; settings: Homo sapiens, breast, FGFR2+, WT, single agent, read-out: IC50 Single Agent (mean +/- std)
Description: as §1, §2, §3

SUM190PT = format: cell-based; settings: Homo sapiens, breast, HER2+, PIK3CA H1047R, single agent, read-out: IC50 Single Agent (mean +/- std)
Description: as §1, §2, §3

SUM149PT = format: cell-based; settings: Homo sapiens, breast, PTEN low, single agent, read-out: IC50 Single Agent (mean +/- std)
Description: as §1, §2, §3

CHL-1 = format: cell-based; settings: Homo sapiens, CHL-1, CHL-1, melanoma, WT; single agent; read-out: IC50 Single Agent (mean +/- std)
Description: as §1, §2, §3

Calu-3 = format: cell-based; settings: Homo sapiens, Calu-3, Calu-3, lung, HER2+, WT; single agent; read-out: IC50 Single Agent (mean +/- std)
Description: as §1, §2, §3

HN5 = format: cell-based; settings: Homo sapiens, HN5, HN5, H&N, EGFR+, WT; single agent; read-out: IC50 Single Agent (mean +/- std)
Description: as §1, §2, §3

| IC50 (BT-474-J4; Homo sapiens) | IC50 (HCC1954) | IC50 (MDA-MB-453) | IC50 (MDA-MB-361) | IC50 (BT-474-J4) | IC50 (Calu-3) | SMILES | IC50 (JIMT-1) | sensitivity as single agents (JIMT-1) | IC50 (SUM225PE; Homo sapiens) | IC50 (UACC893) | IC50 (KPL-4) | IC50 (ZR-75-1) | IC50 (SUM52PE) | IC50 (SUM190PT) | IC50 (SUM225PE) | IC50 (SUM149PT) | IC50 (CHL-1) | IC50 (HN5) |
| --- | --- | --- | --- | --- | --- | --- | --- | --- | --- | --- | --- | --- | --- | --- | --- | --- | --- | --- |
| > 1000 nM | > 1000 nM | > 1000 nM | > 1000 nM | – | – | CC(=O)Nc1cccc(-n2c(=O)n(C3CC3)c(=O)c3c(Nc4ccc(I)cc4F)n(C)c(=O)c(C)c32)c1 [Compound A, N-{3-[3-cyclopropyl-5-(2-fluoro-4-iodo-phenylamino)-6,8-dimethyl-2,4,7-trioxo-3,4,6,7-tetrahydro-2H-pyrido[4,3-d]pyrimidin-1-yl]phenyl}acetamide] | > 1000 nM | not sensitive | > 1000 nM | > 1000 nM | > 1000 nM | > 1000 nM | > 1000 nM | > 1000 nM | – | – | – | – |
| 271 nM | – | – | – | 217 nM | > 1000 nM | Cn1ncc(Cl)c1-c1cc(C(=O)N[C@H](CN)Cc2ccc(F)c(F)c2)oc1Cl [Compound B, N-{(1S)-2-amino-1-[(3,4-difluorophenyl)methyl]ethyl}-5-chloro-4-(4-chloro-1-methyl-1H-pyrazol-5-yl)-2-furancarboxamide] | > 1000 nM | not sensitive | < 1000 nM | – | – | – | – | – | 529 nM | > 1000 nM | > 1000 nM | > 1000 nM |
